Source: the supplement of paper PMC11061612

Experiments:
Assay in all cases: combination Emax (second highest fraction inhibited in the dose matrix, 72 h); higher = more inhibition; extreme values may be limits of the assay
[1] = test system: KURAMOCHI (Ovarian Carcinoma)
Method in brief: (§1)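 Cell lines grown in DMEM/F12 or RPMI with 10% FBS were plated in 1536-well plates and held 24 hours at 37°C, 5% CO2 before 72 hours of exposure to two-drug dose matrices, with DMSO typically at 0.2%. CellTiter-Glo 2.0 luminescence gave viability, which was converted to inhibition. Vehicle wells were set to 0 and blank wells to 1. Combination Emax is the second-highest inhibition in the matrix, and Bliss excess is the observed combination effect minus the expected EA + EB − EA·EB, where EA and EB are the single-agent effects.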

[2] = test system: UM-UC-3 (Bladder Carcinoma)
Method in brief: as §1

HOS (Osteosarcoma) = test system: HOS (Osteosarcoma)
Method in brief: as §1

[3] = test system: NCI-H2085 (Non-Small Cell Lung Carcinoma)
Method in brief: as §1

[4] = test system: Calu-3 (Lung Adenocarcinoma)
Method in brief: as §1

[5] = test system: Hs-578-T (Breast Carcinoma)
Method in brief: as §1

NB10 (Neuroblastoma) = test system: NB10 (Neuroblastoma)
Method in brief: as §1

[6] = test system: HT-1376 (Bladder Carcinoma)
Method in brief: as §1

[7] = test system: ME-1 (Acute Myeloid Leukemia)
Method in brief: as §1

[8] = test system: TE-15 (Esophageal Squamous Cell Carcinoma)
Method in brief: as §1

[9] = test system: HCC-78 (Lung Adenocarcinoma)
Method in brief: as §1

[10] = test system: DoTc2-4510 (Cervical Carcinoma)
Method in brief: as §1

[11] = test system: Ramos-2G6-4C10 (Burkitt's Lymphoma)
Method in brief: as §1

[12] = test system: LB831-BLC (Bladder Carcinoma)
Method in brief: as §1

[13] = test system: NCI-H82 (Small Cell Lung Carcinoma)
Method in brief: as §1

[14] = test system: CAL-148 (Breast Carcinoma)
Method in brief: as §1

[15] = test system: CCRF-CEM (T-Lymphoblastic Leukemia)
Method in brief: as §1

[16] = test system: TE-9 (Esophageal Squamous Cell Carcinoma)
Method in brief: as §1

[17] = test system: LS-180 (Colorectal Carcinoma)
Method in brief: as §1

[18] = test system: HO-1-N-1 (Oral Cavity Carcinoma)
Method in brief: as §1

SMILES	combination Emax [1]	combination Emax [2]	combination Emax (HOS (Osteosarcoma))	combination Emax [3]	combination Emax [4]	combination Emax [5]	combination Emax (NB10 (Neuroblastoma))	combination Emax [6]	combination Emax [7]	combination Emax [8]	combination Emax [9]	combination Emax [10]	combination Emax [11]	combination Emax [12]	combination Emax [13]	combination Emax [14]	combination Emax [15]	combination Emax [16]	combination Emax [17]	combination Emax [18]
C[C@@H]1COCCN1c1cc(C2([S@](C)(=N)=O)CC2)nc(-c2ccnc3[nH]ccc23)n1 [AZD6738] + C1CC(C1)(C(=O)[O-])C(=O)[O-].N.N.[Pt+2] [Carboplatin] (first compound max 10 µM, 7x7, partner max 10 µM)	0.636	0.398	0.668	0.381	0.555	0.69	0.689	0.454	0.348	0.857	0.662	0.492	0.88	0.39	0.823	0.818	0.977	0.264	0.7	0.779
Cc1cc2ncnn2cc1Nc1ncc2c(n1)n(C1CCOCC1)c(=O)n2C [AZD7648] + COc1cc([C@@H]2c3cc4c(cc3[C@@H](O[C@@H]3O[C@@H]5CO[C@@H](C)O[C@H]5[C@H](O)[C@H]3O)[C@H]3COC(=O)[C@H]23)OCO4)cc(OC)c1O [Etoposide] (first compound max 10 µM, 7x7, partner max 10 µM)	0.474	0.875	0.879	0.434	0.744	0.662	0.872	0.515	0.272	0.835	0.774	0.721	0.963	0.836	0.848	1	1	0.287	0.729	0.987
CN(CCO)CC[C@H](CSc1ccccc1)Nc1ccc(S(=O)(=O)NC(=O)c2ccc(N3CCC([C@@H](O)c4ccccc4-c4ccc(Cl)cc4)CC3)cc2)cc1S(=O)(=O)C(F)(F)F [AZD4320] + Nc1ccn([C@@H]2O[C@H](CO)[C@@H](O)C2(F)F)c(=O)n1 [Gemcitabine] (first compound max 1 µM, 7x7, partner max 0.3 µM)	0.559	0.979	0.829	0.562	0.624	0.876	0.858	0.236	1	0.994	0.852	0.882	0.554	0.881	0.807	0.974	1	0.518	0.66	1
N#Cc1cnc(Nc2cc(NC[C@H]3CNCCO3)c(C(F)(F)F)cn2)cn1 [SRA737] + O=c1[nH]cc(F)c(=O)[nH]1 [5-Fluorouracil] (first compound max 10 µM, 7x7, partner max 20 µM)	0.606	0.208	0.435	0.501	0.213	0.612	0.53	0.175	0.471	0.705	0.819	0.231	0.84	0.34	0.816	0.497	0.99	0.469	0.568	0.473
C[C@@H](Nc1cc(F)cc(F)c1)c1cc(C(=O)N(C)C)cc2c(=O)cc(N3CCOCC3)oc12 [AZD8186] + CC(=O)c1c(C)c2cnc(Nc3ccc(N4CCNCC4)cn3)nc2n(C2CCCC2)c1=O [Palbociclib] (first compound max 10 µM, 7x7, partner max 10 µM)	0.28	0.621	0.336	0.61	0.281	0.656	0.403	0.0814	0.233	0.597	0.365	0.297	0.302	0.398	0.526	0.655	0.622	0.109	0.624	0.505
Cc1c2c(nn1C)CSCc1cc(n(C)n1)CSc1cc(c3ccccc3c1)OCCCc1c(C(=O)O)n(C)c3c-2c(Cl)ccc13 [AZD5991] + Nc1ccn([C@@H]2O[C@H](CO)[C@@H](O)C2(F)F)c(=O)n1 [Gemcitabine] (first compound max 1 µM, 7x7, partner max 0.3 µM)	0.491	0.832	0.823	0.203	0.534	0.663	0.778	0.215	0.676	0.931	0.787	0.544	0.994	0.677	0.972	0.929	0.987	0.343	0.779	0.994
N#Cc1cnc(Nc2cc(NC[C@H]3CNCCO3)c(C(F)(F)F)cn2)cn1 [SRA737] + CCc1c2c(nc3ccc(O)cc13)-c1cc3c(c(=O)n1C2)COC(=O)[C@]3(O)CC [SN-38] (first compound max 10 µM, 7x7, partner max 0.3 µM)	0.9	0.967	0.849	0.665	0.674	0.804	0.769	0.566	0.675	0.931	0.959	0.936	1	0.904	0.967	0.907	1	0.589	0.74	0.975
CS(=O)(=O)CCNCc1ccc(-c2ccc3ncnc(Nc4ccc(OCc5cccc(F)c5)c(Cl)c4)c3c2)o1 [Lapatinib] + Cn1cnc2c(F)c(Nc3ccc(Br)cc3Cl)c(C(=O)NOCCO)cc21 [Selumetinib] (first compound max 10 µM, 7x7, partner max 10 µM)	0.58	0.306	0.332	0.341	0.933	0.69	0.481	0.287	0.397	0.775	0.228	0.597	0.347	0.379	0.416	0.373	0.46	0.149	0.758	0.956
C[C@@H](Oc1cc(-c2cnn(C3CCNCC3)c2)cnc1N)c1c(Cl)ccc(F)c1Cl [Crizotinib] + Cn1cnc2c(F)c(Nc3ccc(Br)cc3Cl)c(C(=O)NOCCO)cc21 [Selumetinib] (first compound max 10 µM, 7x7, partner max 10 µM)	0.508	0.346	0.457	0.545	0.172	0.512	0.872	0.0756	0.458	0.406	0.637	0.292	0.4	0.55	0.787	0.578	0.854	0.167	0.717	0.769
CN(CCO)CC[C@H](CSc1ccccc1)Nc1ccc(S(=O)(=O)NC(=O)c2ccc(N3CCC([C@@H](O)c4ccccc4-c4ccc(Cl)cc4)CC3)cc2)cc1S(=O)(=O)C(F)(F)F [AZD4320] + CC(=O)O[C@H]1C(=O)[C@@]2(C)[C@H]([C@H](OC(=O)c3ccccc3)[C@]3(O)C[C@H](OC(=O)[C@H](O)[C@@H](NC(=O)c4ccccc4)c4ccccc4)C(C)=C1C3(C)C)[C@]1(OC(C)=O)CO[C@@H]1C[C@@H]2O [Paclitaxel] (first compound max 1 µM, 7x7, partner max 3 µM)	0.707	0.966	1	0.97	0.76	1	0.912	0.775	1	0.992	0.803	0.992	0.872	0.965	0.941	1	1	0.931	0.94	1
Cc1nc(-c2cn3c(n2)-c2ccc(-c4cnn(C(C)(C)C(N)=O)c4)cc2OCC3)n(C(C)C)n1 [Taselisib] + O=C(Nc1ccc2[nH]nc(-c3ccncc3)c2c1)[C@@H]1CCN(CC(=O)N2CCN(c3ccc(-c4ncccn4)cc3)CC2)C1 [SCH772984] (first compound max 10 µM, 7x7, partner max 5 µM)	0.683	0.716	0.564	0.603	0.855	0.89	0.791	0.227	0.272	0.832	0.664	0.691	0.163	0.641	0.429	0.964	0.611	0.691	0.867	0.999
C[C@@H]1COCCN1c1cc(C2([S@](C)(=N)=O)CC2)nc(-c2ccnc3[nH]ccc23)n1 [AZD6738] + Nc1ccn([C@@H]2O[C@H](CO)[C@@H](O)C2(F)F)c(=O)n1 [Gemcitabine] (first compound max 10 µM, 7x7, partner max 0.3 µM)	0.667	0.966	0.87	0.587	0.694	0.772	–	0.491	0.774	0.939	0.901	0.795	–	0.9	0.987	1	1	0.538	0.819	1
